According to patent US10738043B2, “GLS1 inhibitors for treating disease” (Board of Regents, The University of Texas System, priority 2015, dated 2020):
Where two headings read alike, the source gives them in different places.

Legend:
[1] = test system: A549 cells; assay: Proliferation Assay (A549 viability, Cell Titer Fluor, 72 hours); format: cell-based; settings: read-out: EC50 against A549 cell proliferation
Protocol: A549 cells were routinely maintained in RPMI 1640 media (Gibco catalog number 11875-093) supplemented with 10% dialyzed fetal bovine serum using a humidified incubator (37° C., 5% CO2 and ambient O2). In preparation for the viability assay, cells were inoculated into 384-well black CulturPlates (Perkin Elmer) at a density of 1000 cells/well in a volume of 40 μl. Following a 24-hour incubation at 37° C., 5% CO2 and ambient 02, cells were treated with compound (10 μl) in a final DMSO concentration of 0.5% (v/v). The microplates were then incubated for 72 hours (37° C., 5% CO2 and ambient O2). Cell Titer Fluor (Promega) was subsequently added (10 μl of 6× reagent) and mixed for 15 minutes at room temperature. The plates were then incubated for 30 minutes (37° C., 5% CO2 and ambient O2) and fluorescence was subsequently read on the Perkin Elmer Envision plate reader. EC50 values were calculated using a four-parameter logistic curve fit.

[2] = target: T1, GLS1 (purified recombinant human GAC) (Homo sapiens, UniProt O94925); assay: GLS1 Enzymatic Activity Assay (dual-coupled enzymatic assay); format: biochemical; settings: 50 mM potassium phosphate, 1 mM glutamine, read-out: IC50 against GLS1
T1 sequence (O94925 55-598 isoform O94925-3 limits assumed): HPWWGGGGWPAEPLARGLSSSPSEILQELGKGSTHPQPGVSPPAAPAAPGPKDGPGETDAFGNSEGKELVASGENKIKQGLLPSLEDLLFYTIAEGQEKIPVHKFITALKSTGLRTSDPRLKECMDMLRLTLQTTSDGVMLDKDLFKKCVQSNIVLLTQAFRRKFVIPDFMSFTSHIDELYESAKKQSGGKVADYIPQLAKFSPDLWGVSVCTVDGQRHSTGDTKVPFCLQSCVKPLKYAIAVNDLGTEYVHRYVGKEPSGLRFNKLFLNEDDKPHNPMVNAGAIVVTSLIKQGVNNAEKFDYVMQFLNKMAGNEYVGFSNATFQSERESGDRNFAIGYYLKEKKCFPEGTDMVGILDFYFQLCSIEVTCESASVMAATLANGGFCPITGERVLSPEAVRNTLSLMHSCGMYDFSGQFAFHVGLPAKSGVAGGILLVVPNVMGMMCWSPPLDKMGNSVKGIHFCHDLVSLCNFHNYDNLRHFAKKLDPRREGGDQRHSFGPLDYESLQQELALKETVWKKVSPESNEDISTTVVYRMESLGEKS
Protocol: GLS1 Enzymatic Activity Assay
The inhibition of purified recombinant human GAC by varying concentrations of inhibitors is assessed via a dual-coupled enzymatic assay. The glutamate produced by the glutaminase reaction is used by glutamate oxidase to produce α-ketoglutarate, ammonia, and hydrogen peroxide, with this hydrogen peroxide subsequently being used by horseradish peroxidase to produce resorufin in the presence of Amplex UltraRed. The assay buffer consisted of 50 mM HEPES (pH 7.4), 0.25 mM EDTA and 0.1 mM Triton X-100. GAC was incubated with potassium phosphate (10 minutes at room temperature) prior to incubation with inhibitor (10 minutes at room temperature). The final reaction conditions were as follows: 2 nM GAC, 50 mM potassium phosphate, 100 mU/ml glutamate oxidase (Sigma), 1 mM glutamine (Sigma), 100 mU/ml horseradish peroxidase (Sigma), 75 μM Amplex UltraRed (Life Technologies), and 1% (v/v) DMSO. The production of resorufin was monitored on a Perkin Elmer Envision plate reader (excitation 530 nm, emission 590 nm) either in a kinetics or endpoint mode (at 20 minutes). IC50 values were calculated using a four-parameter logistic curve fit.

Compound | EC50 ([1]; Homo sapiens) [nM] | IC50 [2] [nM] | EC50 [1] [nM]
Cc1cccc(CNC(=O)c2nnc(N3CCC(c4ccc(NC(=O)Cc5cc(OC6CC(F)(F)C6)cc(C)n5)nn4)C3)s2)n1 (stereo not drawn) [Example 53, 5-(3-(6-(2-(4-(3,3-difluorocyclobutoxy)-6-methylpyridin-2-yl)acetamido)pyridazin-3-yl)pyrrolidin-1-yl)-N-((6-methylpyridin-2-yl)methyl)-1,3,4-thiadiazole-2-carboxamide] | < 100 | < 100 | –
Cc1cc(OC2CC(F)(F)C2)cc(CC(=O)Nc2ccc(C3CCN(c4nnc(C(=O)NCc5cc(C(F)(F)F)ccn5)s4)C3)nn2)n1 (stereo not drawn) [Example 52, 5-(3-(6-(2-(4-(3,3-difluorocyclobutoxy)-6-methylpyridin-2-yl)acetamido)pyridazin-3-yl)pyrrolidin-1-yl)-N-((4-(trifluoromethyl)pyridin-2-yl)methyl)-1,3,4-thiadiazole-2-carboxamide] | < 100 | < 100 | –
CC(=O)Nc1nnc(C2CCCN(c3ccc(NC(=O)Cc4cccc(OC(F)(F)F)c4)nn3)C2)s1 (stereo not drawn) [Example 15, N-(6-(3-(5-acetamido-1,3,4-thiadiazol-2-yl)piperidin-1-yl)pyridazin-3-yl)-2-(3-(trifluoromethoxy)phenyl)acetamide] | 100 to 500 | < 100 | –
Cc1cc(OC2CC(F)(F)C2)cc(CC(=O)Nc2ccc(C3CCN(c4nnc(C(=O)NCc5ccccn5)s4)C3)nn2)n1 (stereo not drawn) [Example 51, 5-(3-(6-(2-(4-(3,3-difluorocyclobutoxy)-6-methylpyridin-2-yl)acetamido)pyridazin-3-yl)pyrrolidin-1-yl)-N-(pyridin-2-ylmethyl)-1,3,4-thiadiazole-2-carboxamide] | < 100 | < 100 | –
O=C(Cc1ccccn1)Nc1ccc([C@@H]2CCN(c3nnc(C(=O)NCc4cc(C5CC5)ccn4)s3)C2)nn1 [Example 47, (R)-N-((4-cyclopropylpyridin-2-yl)methyl)-5-(3-(6-(2-(pyridin-2-yl)acetamido)pyridazin-3-yl)pyrrolidin-1-yl)-1,3,4-thiadiazole-2-carboxamide] | < 100 | < 100 | –
Nc1nnc(C2CCCN(c3nnc(NC(=O)Cc4cccc(OC(F)(F)F)c4)s3)C2)s1 (stereo not drawn) [Example 16, N-(5-(3-(5-amino-1,3,4-thiadiazol-2-yl)piperidin-1-yl)-1,3,4-thiadiazol-2-yl)-2-(3-(trifluoromethoxy)phenyl)acetamide] | 500 to 5000 | 100 to 500 | –
O=C(Cc1ccccn1)Nc1ccc([C@@H]2CCN(c3nnc(C(=O)NCc4ccccn4)s3)C2)nn1 [Example 46, (R)-5-(3-(6-(2-(pyridin-2-yl)acetamido)pyridazin-3-yl)pyrrolidin-1-yl)-N-(pyridin-2-ylmethyl)-1,3,4-thiadiazole-2-carboxamide] | < 100 | < 100 | –
O=C(Cc1cccc(OC(F)(F)F)c1)Nc1ccc(N2CCC(c3nnc(NC(=O)Cc4ccc(F)cc4F)s3)C2)nn1 (stereo not drawn) [Example 33, 2-(2,4-difluorophenyl)-N-(5-(1-(6-(2-(3-(trifluoromethoxy)phenyl)acetamido)pyridazin-3-yl)pyrrolidin-3-yl)-1,3,4-thiadiazol-2-yl)acetamide] | 100 to 500 | < 100 | –
O=C(Cc1cccc(OC(F)(F)F)c1)Nc1ccc(N2CCCC(c3nnc(NC(=O)Cc4ccccc4F)s3)C2)nn1 (stereo not drawn) [Example 23, 2-(2-fluorophenyl)-N-(5-(1-(6-(2-(3-(trifluoromethoxy)phenyl)acetamido)pyridazin-3-yl)piperidin-3-yl)-1,3,4-thiadiazol-2-yl)acetamide] | 100 to 500 | < 100 | –
O=C(Cc1ccccn1)Nc1nnc(C2CCN(c3nnc(NC(=O)Cc4cccc(OC(F)(F)F)c4)s3)C2)s1 (stereo not drawn) [Example 32, 2-(pyridin-2-yl)-N-(5-(1-(5-(2-(3-(trifluoromethoxy)phenyl)acetamido)-1,3,4-thiadiazol-2-yl)pyrrolidin-3-yl)-1,3,4-thiadiazol-2-yl)acetamide] | 500 to 5000 | 100 to 500 | –
CC(=O)Nc1nnc(C2CCCN(c3ccc(NC(=O)Cc4ccccc4)nn3)C2)s1 (stereo not drawn) [Example 4, N-(6-(3-(5-Acetamido-1,3,4-thiadiazol-2-yl)piperidin-1-yl)pyridazin-3-yl)-2-phenylacetamide] | 500 to 5000 | 100 to 500 | –
O=C(Cc1ccccn1)Nc1ccc(C2CCN(c3nnc(C(=O)NCc4cccc(OC(F)(F)F)c4)s3)C2)nn1 (stereo not drawn) [Example 43, 5-(3-(6-(2-(pyridin-2-yl)acetamido)pyridazin-3-yl)pyrrolidin-1-yl)-N-(3-(trifluoromethoxy)benzyl)-1,3,4-thiadiazole-2-carboxamide] | < 100 | < 100 | –
O=C(Cc1cccc(OC(F)(F)F)c1)Nc1ccc(C2CCN(c3nnc(C(=O)NCc4ccccn4)s3)C2)nn1 (stereo not drawn) [Example 22, N-(pyridin-2-ylmethyl)-5-(3-(6-(2-(3-(trifluoromethoxy)phenyl)acetamido)pyridazin-3-yl)pyrrolidin-1-yl)-1,3,4-thiadiazole-2-carboxamide] | < 100 | < 100 | –
Cc1cc(C(F)(F)F)cc(CNC(=O)c2nnc(N3CC[C@@H](c4ccc(NC(=O)Cc5ccccn5)nn4)C3)s2)n1 [Example 48, (R)-N-((6-methyl-4-(trifluoromethyl)pyridin-2-yl)methyl)-5-(3-(6-(2-(pyridin-2-yl)acetamido)pyridazin-3-yl)pyrrolidin-1-yl)-1,3,4-thiadiazole-2-carboxamide] | < 100 | < 100 | –
2-(2-phenylthiazol-4-yl)-N-(5-(1-(6-(2-(3-(trifluoromethoxy)phenyl)acetamido)pyridazin-3-yl)pyrrolidin-3-yl)-1,3,4-thiadiazol-2-yl)acetamide [Example 30] | – | < 100 | < 100
O=C(Cc1ccccn1)Nc1ccc(N2CCC(c3nnc(NC(=O)Cc4cccc(OC(F)(F)F)c4)s3)C2)nn1 (stereo not drawn) [Example 42, 2-(pyridin-2-yl)-N-(6-(3-(5-(2-(3-(trifluoromethoxy)phenyl)acetamido)-1,3,4-thiadiazol-2-yl)pyrrolidin-1-yl)pyridazin-3-yl)acetamide] | 100 to 500 | < 100 | –
Nc1nnc(C2CCCN(c3ccc(NC(=O)Cc4cccc(OC(F)(F)F)c4)nn3)C2)s1 (stereo not drawn) [Example 13, N-(6-(3-(5-amino-1,3,4-thiadiazol-2-yl)piperidin-1-yl)pyridazin-3-yl)-2-(3-(trifluoromethoxy)phenyl)acetamide] | 500 to 5000 | 100 to 500 | –
CC(=O)Nc1nnc(C2CCCN(c3nnc(NC(=O)Cc4cccc(OC(F)(F)F)c4)s3)C2)s1 (stereo not drawn) [Example 25, N-(5-(3-(5-acetamido-1,3,4-thiadiazol-2-yl)piperidin-1-yl)-1,3,4-thiadiazol-2-yl)-2-(3-(trifluoromethoxy)phenyl)acetamide] | 500 to 5000 | 100 to 500 | –
O=C(Cc1ccccc1)Nc1ccc(N2CCCC(c3nnc(NC(=O)Cc4ccccn4)s3)C2)nn1 (stereo not drawn) [Example 3, 2-Phenyl-N-(6-(3-(5-(2-(pyridin-2-yl)acetamido)-1,3,4-thiadiazol-2-yl)piperidin-1-yl)pyridazin-3-yl)acetamide] | 100 to 500 | < 100 | –
CC(=O)Nc1nnc(C2CCN(c3ccc(NC(=O)Cc4ccccn4)nn3)C2)s1 (stereo not drawn) [Example 12, N-(6-(3-(5-acetamido-1,3,4-thiadiazol-2-yl)pyrrolidin-1-yl)pyridazin-3-yl)-2-(pyridin-2-yl)acetamide] | – | 100 to 500 | –
